Reference: patent publication US11229208B2, “Pesticidally active bi- or tricyclic heterocycles with sulfur containing substituents” (priority 2013, dated 2022)
Values joined by “and” are separate entries in the source; they are usually repeats but may differ in a detail not shown here. Identical values can stand only once. Like-named read-outs stand apart in the source and are kept apart here. One block for each molecule: values may come before it.

How the values were obtained:
[1] = tested on: Myzus persicae (Green Peach Aphid); assay: Myzus persicae, sucrose solution feeding through Parafilm; assay type: in vivo; settings: 120 h, test rate 12 ppm, 5 days after infestation
Procedure: Example B7: Myzus persicae (Green Peach Aphid)
Test compounds from 10,000 ppm DMSO stock solutions were applied by pipette into 24-well microtiter plates and mixed with sucrose solution. The plates were closed with a stretched Parafilm. A plastic stencil with 24 holes was placed onto the plate and infested pea seedlings were placed directly on the Parafilm. The infested plate was closed with a gel blotting paper and another plastic stencil and then turned upside down. The samples were assessed for mortality 5 days after infestation.

[2] = tested on: Spodoptera littoralis (Egyptian Cotton Leaf Worm); assay: Spodoptera littoralis, sprayed cotton leaf discs, L1 larvae; assay type: in vivo; settings: foliar, 72 h, read-out: mortality (control)
Procedure: Example B2: Spodoptera littoralis (Egyptian Cotton Leaf Worm)
Cotton leaf discs were placed on agar in 24-well microtiter plates and sprayed with aqueous test solutions prepared from 10,000 ppm DMSO stock solutions. After drying the leaf discs were infested with five L1 larvae. The samples were assessed for mortality 3 days after infestation.

[3] = tested on: Spodoptera littoralis (Egyptian Cotton Leaf Worm); assay: Spodoptera littoralis systemic test, lettuce grown on treated agar, infested with eggs; assay type: in vivo; settings: 144 h, test rate 12.5 ppm, assessed 6 days after infestation, in comparison to untreated samples, read-out: effect in at least one of the three categories (mortality, anti-feedancy, or growth inhibition)
From the text: Example B1: Spodoptera littoralis (Egyptian Cotton Leaf Worm)
Test compounds were applied by pipette from 10,000 ppm DMSO stock solutions into 24-well plates and mixed with agar. Lettuce seeds were placed on the agar and the multi well plate was closed by another plate which contains also agar. After 7 days the roots have absorbed the compound and the lettuce has grown into the lid plate. The lettuce leafs were now cut off into the lid plate. Spodoptera eggs were pipetted through a plastic stencil on a humid gel blotting paper and the plate closed with it. The samples were assessed for mortality, anti-feedant effect and growth inhibition in comparison to untreated samples 6 days after infestation.
The following compounds gave an effect of at least 80% in at least one of the three categories (mortality, anti-feedancy, or growth inhibition) at a test rate of 12.5 ppm: […]

[4] = tested on: Myzus persicae (Green Peach Aphid); assay: Myzus persicae, sprayed sunflower leaf discs, mixed-age population; assay type: in vivo; settings: foliar, 144 h, application rate 200 ppm, 6 days after infestation
Procedure: Example B5: Myzus persicae (Green Peach Aphid)
Sunflower leaf discs were placed on agar in a 24-well microtiter plate and sprayed with aqueous test solutions prepared from 10,000 ppm DMSO stock solutions. After drying, the leaf discs were infested with an aphid population of mixed ages. The samples were assessed for mortality 6 days after infestation.

[5] = tested on: Plutella xylostella (Diamond Back Moth); assay: Plutella xylostella, treated artificial diet, L2 larvae; assay type: in vivo; settings: 120 h, application rate 200 ppm, 5 days after infestation
Procedure: Example B3: Plutella xylostella (Diamond Back Moth)
(§1) 24-well microtiter plates with artificial diet were treated with aqueous test solutions prepared from 10,000 ppm DMSO stock solutions by pipetting. After drying, the plates were infested with L2 larvae (10 to 15 per well). The samples were assessed for mortality 5 days after infestation.

[6] = tested on: Myzus persicae (Green Peach Aphid); assay: Myzus persicae systemic test, roots of infested pea seedlings in test solution; assay type: in vivo; settings: 144 h, test rate 24 ppm, 6 days after placing seedlings in test solutions
Procedure: Example B6: Myzus persicae (Green Peach Aphid)
Roots of pea seedlings infested with an aphid population of mixed ages were placed directly in the aqueous test solutions prepared from 10,000 DMSO stock solutions. The samples were assessed for mortality 6 days after placing seedlings in test solutions.

[7] = tested on: Bemisia tabaci (Cotton White Fly); assay: Bemisia tabaci, sprayed cotton leaf discs, adult white flies; assay type: in vivo; settings: foliar, 144 h, application rate 200 ppm, 6 days after incubation
Procedure: Example B10: Bemisia tabaci (Cotton White Fly)
Cotton leaf discs were placed on agar in 24-well microtiter plates and sprayed with aqueous test solutions prepared from 10,000 ppm DMSO stock solutions. After drying the leaf discs were infested with adult white flies. The samples were checked for mortality 6 days after incubation.

[8] = tested on: Diabrotica balteata (Corn Root Worm); assay: Diabrotica balteata, treated artificial diet, L2 larvae; assay type: in vivo; settings: 120 h, read-out: effect in at least one of the two categories (mortality or growth inhibition)
Procedure: Example B4: Diabrotica balteata (Corn Root Worm)
as §1, with “(6” for “(10”, “10” for “15”, “mortality and growth inhibition in comparison to untreated samples” for “mortality”
The following compounds gave an effect of at least 80% in at least one of the two categories (mortality or growth inhibition) at an application rate of 200 ppm: […]

[9] = tested on: Tetranychus urticae (Two-Spotted Spider Mite); assay: Tetranychus urticae, sprayed bean leaf discs, mixed-age mite population; assay type: in vivo; settings: foliar, 192 h, read-out: mortality on mixed population (mobile stages)
Procedure: Example B11: Tetranychus urticae (Two-Spotted Spider Mite)
Bean leaf discs on agar in 24-well microtiter plates were sprayed with aqueous test solutions prepared from 10,000 ppm DMSO stock solutions. After drying the leaf discs were infested with a mite population of mixed ages. The samples were assessed for mortality on mixed population (mobile stages) 8 days after infestation.

[10] = application rate 200 ppm, 3 days after infestation
[11] = application rate 200 ppm, 5 days after infestation, in comparison to untreated samples

Structure (SMILES): CCS(=O)(=O)c1cc(C(F)(F)F)cnc1-c1nc2cc(C(F)(F)F)ncn2c1C [Compound V16.01, 2-[3-ethylsulfonyl-5-(trifluoromethyl)-2-pyridyl]-3-methyl-7-(trifluoromethyl)imidazo[1,2-c]pyrimidine]
mortality at 12 ppm [1]: ≥ 80%
mortality at 200 ppm [2, 10]: ≥ 80%
percent effect (mortality, anti-feedancy or growth inhibition) at 12.5 ppm [3]: ≥ 80%
mortality at 200 ppm [4]: ≥ 80%
mortality at 200 ppm [5]: ≥ 80%

Structure (SMILES): CCS(=O)(=O)c1nc(C(F)(F)F)ccc1-c1nc2cc3nc(C(F)(F)F)n(C)c3nc2n1C
melting point: 197 to 199 °C

Structure (SMILES): CCS(=O)(=O)c1cc(C(F)(F)F)cnc1-c1nc2cc(Br)ncc2n1C [Compound V12.20, 6-bromo-2-[3-ethylsulfonyl-5-(trifluoromethyl)-2-pyridyl]-3-methyl-imidazo[4,5-c]pyridine]
mortality at 12 ppm [1]: ≥ 80%
mortality at 200 ppm [2, 10]: ≥ 80%
mortality at 24 ppm [6]: ≥ 80%
mortality at 200 ppm [7]: ≥ 80%
mortality at 200 ppm [4]: ≥ 80%
percent effect (mortality or growth inhibition) at 200 ppm [8, 11]: ≥ 80%

Structure (SMILES): CCS(=O)(=O)c1scnc1-c1nc2cc(C(F)(F)F)ncc2n1C [Compound V13.05, 5-ethylsulfonyl-4-[3-methyl-6-(trifluoromethyl)imidazo[4,5-c]pyridin-2-yl]thiazole]
mortality at 200 ppm [7]: ≥ 80%
percent effect (mortality or growth inhibition) at 200 ppm [8, 11]: ≥ 80%
mortality at 200 ppm [5]: ≥ 80%

Structure (SMILES): CCS(=O)(=O)c1nc(C(F)(F)F)ccc1-c1cn2ccc(C(F)(F)F)cc2n1
melting point: 188 to 190 °C

Structure (SMILES): CCS(=O)(=O)c1nc(C(F)(F)F)sc1-c1cn2ccc(C(F)(F)F)cc2n1
melting point: 126 to 128 °C

Structure (SMILES): CCS(=O)(=O)c1cc(C(F)(F)F)cnc1-c1nc2cc(Cl)nnc2n1C [Compound V12.17, 3-chloro-6-[3-ethylsulfonyl-5-(trifluoromethyl)-2-pyridyl]-7-methyl-imidazo[4,5-c]pyridazine]
mortality at 12 ppm [1]: ≥ 80%
mortality at 24 ppm [6]: ≥ 80%
mortality at 200 ppm [4]: ≥ 80%

Structure (SMILES): CCS(=O)(=O)c1nc(C(F)(F)F)sc1-c1nc2cc(C(F)(F)F)ncc2n1C [Compound V14.05, 4-Ethylsulfonyl-5-[3-methyl-6-(trifluoromethyl)imidazo[4,5-c]pyridin-2-yl]-2-(trifluoromethyl)thiazole]
mortality at 12 ppm [1]: ≥ 80%
mortality at 24 ppm [6]: ≥ 80%
mortality at 200 ppm [4]: ≥ 80%

Structure (SMILES): CCS(=O)(=O)c1cc(C(F)(F)F)cnc1-c1nc2cc(C(F)(F)F)ncn2n1 [Compound V16.03, 2-[3-ethylsulfonyl-5-(trifluoromethyl)-2-pyridyl]-7-(trifluoromethyl) [1,2,4]triazolo[1,5-c]pyrimidine]
mortality at 24 ppm [6]: ≥ 80%
mortality at 200 ppm [4]: ≥ 80%
percent effect (mortality or growth inhibition) at 200 ppm [8, 11]: ≥ 80%
mortality at 200 ppm [5]: ≥ 80%

Structure (SMILES): CC1Cc2c(C(F)(F)F)ccc(-c3nc4cc(C(F)(F)F)cnc4n3C)c2S1(=O)=O (stereo not shown)
melting point: 206 °C

Structure (SMILES): Cn1c(-c2ncc(C(F)(F)F)cc2S(C)(=O)=O)nc2cc(C(F)(F)F)ncc21 [Compound V12.18, 3-methyl-2-[3-methylsulfonyl-5-(trifluoromethyl)-2-pyridyl]-6-(trifluoromethyl)imidazo[4,5-c]pyridine]
mortality at 200 ppm [2]: ≥ 80%
percent effect (mortality or growth inhibition) at 200 ppm [8]: ≥ 80%
mortality at 200 ppm [9]: ≥ 80%

Structure (SMILES): CCS(=O)(=O)c1cc(C(F)(F)F)cnc1-c1cn2cnc(C(F)(F)F)cc2n1 [Compound V16.02, 2-[3-ethylsulfonyl-5-(trifluoromethyl)-2-pyridyl]-7-(trifluoromethyl)imidazo[1,2-c]pyrimidine]
mortality at 200 ppm [2, 10]: ≥ 80%
percent effect (mortality, anti-feedancy or growth inhibition) at 12.5 ppm [3]: ≥ 80%
mortality at 200 ppm [4]: ≥ 80%
percent effect (mortality or growth inhibition) at 200 ppm [8, 11]: ≥ 80%
mortality at 200 ppm [5]: ≥ 80%
mortality at 200 ppm ([9]; application rate 200 ppm, 8 days after infestation): ≥ 80%

Now from value to molecule:

melting point: 162 to 165 °C
Structure (SMILES): CCS(=O)(=O)c1cc(C(F)(F)F)cnc1-c1nc2nc(C(F)(F)F)cnc2n1C

melting point: 172 to 174 °C
Structure (SMILES): CCS(=O)(=O)c1cc(C(F)(F)F)nnc1-c1nc2cc(C(F)(F)F)cnc2n1C

melting point: 156 to 158 °C
Structure (SMILES): CCSc1cc(C(F)(F)F)cnc1-c1nc2cc(Cl)nnc2n1C

melting point: 149 to 150 °C and 149 to 156 °C
Structure (SMILES): CCSc1cc(C(F)(F)F)nnc1-c1nc2cc(C(F)(F)F)cnc2n1C

melting point: 146 to 148 °C
Structure (SMILES): CCS(=O)(=O)c1cc(OC(F)F)cnc1-c1nc2cc(C(F)(F)F)ncc2n1C

melting point: 144 to 146 °C
Structure (SMILES): CCS(=O)(=O)c1nsnc1-c1nc2cc(C(F)(F)F)cnc2n1C
